Measurements: ChEMBL document CHEMBL1201862, “PubChem BioAssay data set” (2004)
Where a name gives a salt, the structure may show the parent alone. Calls of active or inactive are those of the source.

Experiments:
[1] = ZM109 Env clade C HIV-1 fusion inhibitors, dose response, HeLa effector, CEM target cells, luciferase, cherry-pick (AID 652058); type: functional, cell-based
[2] = off-target signal loss in HeLa-CEM21 co-culture – HeLa F-luc CTL cells, cherry-picked, counter-screen for HIV-1 Env fusion inhibitor project, dose response (AID 652040); type: functional, cell-based;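 also: potency for signal decrease marking cytotoxic or nonspecific inhibition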
[3] = inhibitors of HIV Env-driven cell fusion, dose response, cherry-pick (AID 652057); type: functional, cell-based
[4] = inhibitors of clade B AD8 Env fusion, dose response, cell-based, cherry-pick (AID 652062); type: functional;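 also: luciferase signal from cell-cell fusion driven by HIV-1 clade B AD8 Env; potency is for inhibitors of fusion seen as a drop in luminescence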
[5] = molecular target: T1, Ubiquitin-conjugating enzyme E2 N (Homo sapiens, UniProt P61088); type: functional;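 also: Dose-response confirmation in a TR-FRET assay detecting UBC13-driven polyubiquitin chain formation, inhibition measured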
T1 sequence (P61088 whole entry): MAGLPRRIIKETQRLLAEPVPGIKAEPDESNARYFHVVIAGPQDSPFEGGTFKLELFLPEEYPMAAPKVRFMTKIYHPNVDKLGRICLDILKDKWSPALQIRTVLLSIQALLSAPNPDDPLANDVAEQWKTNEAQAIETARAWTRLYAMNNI

[6] = molecular target: Cytochrome P450 3A4 (Homo sapiens, UniProt P08684);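 also: CYP3A4 tested as one member of a cytochrome P450 panel screen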
Cytochrome P450 3A4, sequence (P08684 whole entry): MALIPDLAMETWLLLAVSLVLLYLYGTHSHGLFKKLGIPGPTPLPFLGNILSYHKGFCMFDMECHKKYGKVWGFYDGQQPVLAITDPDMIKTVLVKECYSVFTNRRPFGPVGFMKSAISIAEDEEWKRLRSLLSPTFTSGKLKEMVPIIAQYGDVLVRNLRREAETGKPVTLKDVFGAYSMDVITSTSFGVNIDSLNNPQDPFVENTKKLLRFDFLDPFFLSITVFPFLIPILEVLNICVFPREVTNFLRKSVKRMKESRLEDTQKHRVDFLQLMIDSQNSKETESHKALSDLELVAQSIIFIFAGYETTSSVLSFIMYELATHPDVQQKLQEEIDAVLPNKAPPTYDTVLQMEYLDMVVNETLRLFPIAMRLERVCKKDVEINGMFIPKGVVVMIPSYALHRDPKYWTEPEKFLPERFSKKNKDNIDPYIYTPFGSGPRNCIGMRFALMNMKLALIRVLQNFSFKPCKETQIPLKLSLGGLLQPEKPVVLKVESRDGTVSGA

[7] = molecular target: Peroxisome proliferator-activated receptor gamma/Nuclear receptor coactivator 1 (Homo sapiens, UniProt P37231); type: functional;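 also: agonist potency as compounds enhance coactivator SRC-1 recruitment to PPARgamma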
Peroxisome proliferator-activated receptor gamma/Nuclear receptor coactivator 1, sequence (P37231 whole entry): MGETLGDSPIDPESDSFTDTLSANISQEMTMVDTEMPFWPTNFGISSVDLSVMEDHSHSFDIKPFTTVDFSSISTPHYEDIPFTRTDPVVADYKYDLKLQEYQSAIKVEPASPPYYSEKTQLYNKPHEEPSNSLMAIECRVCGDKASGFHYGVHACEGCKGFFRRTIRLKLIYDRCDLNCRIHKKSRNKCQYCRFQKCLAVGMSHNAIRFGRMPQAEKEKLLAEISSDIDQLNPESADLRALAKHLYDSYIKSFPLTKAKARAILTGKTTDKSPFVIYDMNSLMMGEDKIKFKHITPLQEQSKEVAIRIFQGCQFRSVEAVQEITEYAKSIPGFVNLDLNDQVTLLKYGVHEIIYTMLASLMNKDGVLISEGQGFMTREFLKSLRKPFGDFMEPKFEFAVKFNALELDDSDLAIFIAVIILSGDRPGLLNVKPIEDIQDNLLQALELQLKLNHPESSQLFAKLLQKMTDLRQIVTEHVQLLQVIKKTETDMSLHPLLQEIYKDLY
Peroxisome proliferator-activated receptor gamma/Nuclear receptor coactivator 1, sequence (Q15788 whole entry, further chain): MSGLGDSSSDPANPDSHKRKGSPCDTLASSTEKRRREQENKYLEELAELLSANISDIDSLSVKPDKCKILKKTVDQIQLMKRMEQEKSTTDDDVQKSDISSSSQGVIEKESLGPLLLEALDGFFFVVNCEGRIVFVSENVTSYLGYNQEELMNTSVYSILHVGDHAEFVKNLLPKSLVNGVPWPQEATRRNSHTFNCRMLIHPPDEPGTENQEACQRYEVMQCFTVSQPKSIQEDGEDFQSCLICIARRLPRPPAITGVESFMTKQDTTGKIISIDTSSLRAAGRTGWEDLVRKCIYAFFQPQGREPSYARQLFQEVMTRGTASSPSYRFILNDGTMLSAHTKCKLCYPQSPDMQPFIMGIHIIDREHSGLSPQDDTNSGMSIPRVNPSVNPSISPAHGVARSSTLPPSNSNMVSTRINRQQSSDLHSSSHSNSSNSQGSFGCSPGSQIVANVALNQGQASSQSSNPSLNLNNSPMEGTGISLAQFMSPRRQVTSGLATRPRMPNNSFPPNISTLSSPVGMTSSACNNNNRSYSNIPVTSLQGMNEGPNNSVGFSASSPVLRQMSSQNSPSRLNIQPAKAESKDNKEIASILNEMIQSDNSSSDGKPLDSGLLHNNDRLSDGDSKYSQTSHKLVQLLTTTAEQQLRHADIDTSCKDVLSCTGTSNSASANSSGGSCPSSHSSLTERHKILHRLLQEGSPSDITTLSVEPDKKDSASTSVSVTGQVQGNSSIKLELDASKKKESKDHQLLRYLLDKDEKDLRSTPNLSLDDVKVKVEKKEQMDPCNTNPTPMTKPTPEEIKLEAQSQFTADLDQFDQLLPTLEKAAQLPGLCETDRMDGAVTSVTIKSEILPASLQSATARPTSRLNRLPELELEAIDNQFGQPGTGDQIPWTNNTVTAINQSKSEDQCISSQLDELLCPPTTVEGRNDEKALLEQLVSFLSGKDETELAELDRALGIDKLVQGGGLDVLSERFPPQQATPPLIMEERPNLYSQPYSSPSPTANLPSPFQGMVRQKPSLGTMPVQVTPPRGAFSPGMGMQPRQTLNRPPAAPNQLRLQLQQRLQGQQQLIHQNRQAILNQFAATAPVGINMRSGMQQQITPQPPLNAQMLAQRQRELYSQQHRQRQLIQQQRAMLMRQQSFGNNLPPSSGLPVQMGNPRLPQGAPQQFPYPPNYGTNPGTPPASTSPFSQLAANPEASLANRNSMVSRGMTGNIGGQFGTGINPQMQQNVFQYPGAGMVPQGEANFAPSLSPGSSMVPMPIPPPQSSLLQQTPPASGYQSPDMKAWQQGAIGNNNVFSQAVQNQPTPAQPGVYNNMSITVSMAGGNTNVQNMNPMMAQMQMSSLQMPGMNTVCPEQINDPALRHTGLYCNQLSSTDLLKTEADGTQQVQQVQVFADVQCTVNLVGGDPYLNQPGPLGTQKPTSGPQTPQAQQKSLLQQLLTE

[8] = molecular target: Peroxisome proliferator-activated receptor gamma/Nuclear receptor coactivator 2 (Homo sapiens, UniProt P37231); type: functional;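 also: agonist potency for raising coactivator recruitment to the receptor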
Peroxisome proliferator-activated receptor gamma/Nuclear receptor coactivator 2, sequence (P37231 whole entry): as the sequence (P37231 whole entry) above
Peroxisome proliferator-activated receptor gamma/Nuclear receptor coactivator 2, sequence (Q15596 whole entry, further chain): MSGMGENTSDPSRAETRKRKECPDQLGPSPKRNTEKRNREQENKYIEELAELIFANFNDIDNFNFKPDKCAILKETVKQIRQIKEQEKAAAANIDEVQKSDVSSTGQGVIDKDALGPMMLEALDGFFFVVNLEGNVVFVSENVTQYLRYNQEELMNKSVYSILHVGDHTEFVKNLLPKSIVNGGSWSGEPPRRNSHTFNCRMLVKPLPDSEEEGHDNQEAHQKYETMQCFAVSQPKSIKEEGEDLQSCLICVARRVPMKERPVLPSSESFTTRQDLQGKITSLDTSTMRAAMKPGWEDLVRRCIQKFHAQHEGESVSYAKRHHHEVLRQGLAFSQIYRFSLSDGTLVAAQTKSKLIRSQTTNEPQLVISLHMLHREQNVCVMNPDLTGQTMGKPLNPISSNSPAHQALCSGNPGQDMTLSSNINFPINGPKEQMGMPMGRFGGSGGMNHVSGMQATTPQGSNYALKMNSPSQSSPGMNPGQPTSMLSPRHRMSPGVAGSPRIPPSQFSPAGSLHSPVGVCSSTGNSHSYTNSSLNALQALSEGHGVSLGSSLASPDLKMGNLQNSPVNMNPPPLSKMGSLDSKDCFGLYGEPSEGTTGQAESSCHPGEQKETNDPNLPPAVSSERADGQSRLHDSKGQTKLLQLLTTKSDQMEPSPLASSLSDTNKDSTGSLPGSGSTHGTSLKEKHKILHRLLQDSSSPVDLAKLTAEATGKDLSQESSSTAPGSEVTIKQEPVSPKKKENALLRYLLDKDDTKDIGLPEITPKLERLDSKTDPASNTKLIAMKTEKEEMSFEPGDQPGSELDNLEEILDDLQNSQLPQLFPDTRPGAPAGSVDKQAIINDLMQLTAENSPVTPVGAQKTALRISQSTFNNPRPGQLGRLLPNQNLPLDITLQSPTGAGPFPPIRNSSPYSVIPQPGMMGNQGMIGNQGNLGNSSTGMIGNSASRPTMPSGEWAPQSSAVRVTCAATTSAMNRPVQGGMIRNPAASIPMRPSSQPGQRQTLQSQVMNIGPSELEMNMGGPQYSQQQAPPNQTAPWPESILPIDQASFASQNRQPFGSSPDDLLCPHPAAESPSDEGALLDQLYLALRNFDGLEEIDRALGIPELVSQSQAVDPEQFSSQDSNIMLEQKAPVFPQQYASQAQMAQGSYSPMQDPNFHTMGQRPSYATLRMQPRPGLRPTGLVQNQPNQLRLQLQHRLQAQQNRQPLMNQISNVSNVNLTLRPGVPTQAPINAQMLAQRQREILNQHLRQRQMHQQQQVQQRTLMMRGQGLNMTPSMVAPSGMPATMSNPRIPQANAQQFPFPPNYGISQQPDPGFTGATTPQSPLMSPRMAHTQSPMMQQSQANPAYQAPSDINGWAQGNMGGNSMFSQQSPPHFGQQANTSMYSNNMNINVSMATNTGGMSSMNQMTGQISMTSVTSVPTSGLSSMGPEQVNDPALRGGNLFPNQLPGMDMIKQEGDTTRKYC

[9] = molecular target: Peroxisome proliferator-activated receptor gamma/Nuclear receptor coactivator 3 (Homo sapiens, UniProt P37231); type: functional;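 also: agonist potency for raising coactivator recruitment to the receptor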
[10] = molecular target: Heat shock protein HSP 90-alpha (Homo sapiens, UniProt P07900); type: functional, organism-based
[11] = molecular target: T2, Cytochrome P450 1A2 (Homo sapiens, UniProt P05177);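 also: PubChem cytochrome P450 panel assay, CYP1A2 panel member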
T2 sequence (P05177 whole entry): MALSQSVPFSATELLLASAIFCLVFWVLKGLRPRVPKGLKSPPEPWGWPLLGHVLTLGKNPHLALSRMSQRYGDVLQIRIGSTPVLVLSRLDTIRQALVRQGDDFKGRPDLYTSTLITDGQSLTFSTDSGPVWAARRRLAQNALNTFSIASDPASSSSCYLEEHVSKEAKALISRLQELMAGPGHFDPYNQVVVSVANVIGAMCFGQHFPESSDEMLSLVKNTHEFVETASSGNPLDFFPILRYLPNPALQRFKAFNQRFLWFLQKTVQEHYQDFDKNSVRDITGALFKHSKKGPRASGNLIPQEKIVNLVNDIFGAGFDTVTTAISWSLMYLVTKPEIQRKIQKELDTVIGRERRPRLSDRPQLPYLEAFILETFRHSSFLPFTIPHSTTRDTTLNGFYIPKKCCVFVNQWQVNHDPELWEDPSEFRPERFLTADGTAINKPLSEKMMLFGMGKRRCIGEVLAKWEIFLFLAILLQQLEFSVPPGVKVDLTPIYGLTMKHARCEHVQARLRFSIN

[12] = microbe, parasite or virus in culture; type: functional; conditions: Mycobacterium tuberculosis
[13] = Luminescence Cell-Based Dose Retest to Confirm Inhibitors of Cancer Stem Cells. [Related pubchem assays (depositor defined):AID2717, AID2721]; type: functional; conditions: Homo sapiens
[14] = molecular target: T3, Streptokinase A (Streptococcus pyogenes serotype M1, UniProt P10520); test: S. pyogenes streptokinase expression inhibitors, potency, dose response, plasminogen activation absorbance, OD405 (AID 1914); type: functional, Streptococcus pyogenes M1 GAS;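 also: secreted streptokinase activity via plasminogen activation per viability signal from cell pellet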
T3 sequence (P10520 whole entry): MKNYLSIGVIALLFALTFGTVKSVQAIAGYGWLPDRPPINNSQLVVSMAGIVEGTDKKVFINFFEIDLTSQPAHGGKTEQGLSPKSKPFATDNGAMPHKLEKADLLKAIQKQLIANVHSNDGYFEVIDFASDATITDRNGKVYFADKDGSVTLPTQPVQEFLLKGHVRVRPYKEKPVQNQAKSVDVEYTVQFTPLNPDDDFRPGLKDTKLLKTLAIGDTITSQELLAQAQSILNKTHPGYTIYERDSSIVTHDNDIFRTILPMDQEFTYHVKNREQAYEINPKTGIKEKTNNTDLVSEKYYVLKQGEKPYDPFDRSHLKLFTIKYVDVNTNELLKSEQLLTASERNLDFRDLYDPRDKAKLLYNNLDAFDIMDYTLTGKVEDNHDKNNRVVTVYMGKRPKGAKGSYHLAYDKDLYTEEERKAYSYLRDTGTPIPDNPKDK

[15] = test system: Streptococcus; test: Group A Streptococcus viability loss, dose response, counter-screen for streptokinase expression inhibitor project, luminescence, BacTiterGlo (AID 1915); type: functional, organism-based;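 also: potency for reduction of bacterial viability or growth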
[16] = molecular target: Prothrombin (Homo sapiens, UniProt P00734); test: Thrombin 1536 HTS Dose Response Confirmation. [Related pubchem assays: 1046 (Thrombin 1536 HTS; hits were confirmed in this assay)]; type: functional
[17] = molecular target: T4, Zinc finger protein mex-5 (Caenorhabditis elegans, UniProt Q9XUB2); test: MEX-5/TCR-2 RNA interaction inhibitors, dose response, biochemical, C. elegans, fluorescence polarization (AID 1960)
T4 sequence (Q9XUB2 whole entry): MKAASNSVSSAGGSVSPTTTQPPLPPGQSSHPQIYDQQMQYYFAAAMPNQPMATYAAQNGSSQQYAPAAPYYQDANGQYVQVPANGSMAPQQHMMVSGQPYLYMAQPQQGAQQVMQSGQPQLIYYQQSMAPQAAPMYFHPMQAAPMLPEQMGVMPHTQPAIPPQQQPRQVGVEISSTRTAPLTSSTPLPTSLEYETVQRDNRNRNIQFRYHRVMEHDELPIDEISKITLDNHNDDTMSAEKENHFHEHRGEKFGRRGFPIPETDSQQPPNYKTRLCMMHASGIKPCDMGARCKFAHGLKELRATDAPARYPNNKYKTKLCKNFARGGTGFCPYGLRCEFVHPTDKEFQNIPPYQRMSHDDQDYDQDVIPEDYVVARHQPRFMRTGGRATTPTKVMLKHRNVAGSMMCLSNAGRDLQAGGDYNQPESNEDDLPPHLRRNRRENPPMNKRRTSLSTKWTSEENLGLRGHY

[18] = molecular target: T5, RNA-binding protein pos-1 (Caenorhabditis elegans, UniProt G5EF15); test: inhibitors of POS-1/mex-3 RNA binding, dose response, biochemical, fluorescence polarization (AID 1964);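 also: purified POS-1 fused to maltose binding protein made in E. coli; potency of compounds blocking POS-1 binding to fluorescent RNA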
T5 sequence (G5EF15 whole entry): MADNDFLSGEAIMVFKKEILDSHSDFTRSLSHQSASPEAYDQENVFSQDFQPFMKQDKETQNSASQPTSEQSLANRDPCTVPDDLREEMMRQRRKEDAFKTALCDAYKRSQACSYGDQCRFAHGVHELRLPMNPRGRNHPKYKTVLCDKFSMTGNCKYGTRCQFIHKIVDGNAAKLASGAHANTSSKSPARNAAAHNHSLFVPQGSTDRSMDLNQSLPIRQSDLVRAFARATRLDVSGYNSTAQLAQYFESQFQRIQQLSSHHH

[19] = MC4R antagonists, dose response, counter-screen for LGR2 antagonist project, cell-based, plate reader, cherry pick (AID 743444); type: functional;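 also: transfected HEK 293 cells stimulated with alpha-MSH peptide; potency of inhibitors of the alpha-MSH evoked signal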
[20] = LGR2 antagonists, dose response, cell-based, HEK293, CRE-luciferase reporter, cherry pick, set 2 (AID 743343); type: functional;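 also: transfected cells were stimulated with diluted bursicon conditioned medium after compound addition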
[21] = P. falciparum Dd2 growth inhibitors, dose response, SYBR Green, cherry-picked samples (AID 1159567); type: functional, cell-based
[22] = P. falciparum 3D7-ScDHODH growth inhibitors, dose response, SYBR Green, dry powder samples (AID 1159570); type: functional, cell-based;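 also: parasite growth measured after 72 hours of compound exposure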
[23] = P. falciparum Dd2 growth inhibitors, dose response, SYBR Green, dry powder samples (AID 1159566); type: functional, cell-based;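 also: potency for growth inhibition with lower SYBR green DNA signal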
[24] = P. falciparum ATP4 D1247Y mutant growth inhibitors, dose response, NITD609-resistant line, SYBR Green, dry powder (AID 1159571); type: functional, cell-based;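 also: parasites synchronized at ring stage by sorbitol before testing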
[25] = molecular target: Cytochrome P450 2C9 (Homo sapiens, UniProt P11712)
[26] = molecular target: T6, Polyadenylate-binding protein 1 (Homo sapiens, UniProt P11940); test: PABP1 MLLE–PAM2 binding inhibitor potency, dose response, biochemical, fluorescence polarization, FITC-PAM2 peptide (AID 602259); type: functional; conditions: read-out: IC50_Mean
T6 sequence (P11940 whole entry): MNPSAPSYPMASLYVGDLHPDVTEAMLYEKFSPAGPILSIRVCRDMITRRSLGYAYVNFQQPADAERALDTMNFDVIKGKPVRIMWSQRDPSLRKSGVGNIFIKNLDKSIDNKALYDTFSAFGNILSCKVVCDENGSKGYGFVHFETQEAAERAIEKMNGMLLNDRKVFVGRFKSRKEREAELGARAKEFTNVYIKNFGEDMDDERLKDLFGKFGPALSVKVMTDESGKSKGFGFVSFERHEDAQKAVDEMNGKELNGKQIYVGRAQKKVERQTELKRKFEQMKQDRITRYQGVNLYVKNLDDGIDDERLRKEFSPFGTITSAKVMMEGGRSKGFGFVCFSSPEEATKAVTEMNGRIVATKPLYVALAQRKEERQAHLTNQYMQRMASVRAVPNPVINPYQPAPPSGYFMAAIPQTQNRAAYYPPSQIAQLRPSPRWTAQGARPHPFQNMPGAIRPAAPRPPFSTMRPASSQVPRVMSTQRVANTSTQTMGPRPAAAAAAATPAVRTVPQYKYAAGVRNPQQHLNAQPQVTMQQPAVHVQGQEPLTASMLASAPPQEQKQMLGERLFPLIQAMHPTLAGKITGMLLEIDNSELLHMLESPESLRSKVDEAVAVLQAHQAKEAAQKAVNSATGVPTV

[27] = molecular target: T6, Polyadenylate-binding protein 1; test: PABP1 MLLE–PAM2 interaction inhibitors, dose response, miRNA deadenylation inhibitor project, biochemical, fluorescence polarization, Cy5-PAM2 peptide, secondary (AID 602260); type: functional; conditions: read-out: IC50_Mean
[28] = molecular target: Cytochrome P450 2D6 (Homo sapiens, UniProt P10635);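 also: CYP2D6 member of a cytochrome P450 panel assay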

With `CCN(CC(=O)Nc1cc(Cl)ccc1C)C(=O)c1ccc(=O)n(Cc2ccccc2)n1` the AC50 [1] was 3.23 µM (active), the AC50 [2] was 5.05 µM (active) and the AC50 [3] was 4.27 µM (active). The AC50 [4] was 9.4 µM (active).
With `NCCCC[C@@H]1NC(=O)c2cc([N+](=O)[O-])cc(F)c2NCCCC[C@@H](C(N)=O)NC(=O)CNC1=O` the IC50 [5] was > 20 µM (inactive).
With `C[C@@]12CC[C@@H]3[C@H](CCC4=CC(=O)CC[C@]43C)[C@@H]1CC[C@@H]2C(=O)Cn1cnc2c(S)ncnc21` the AC50 [6] was “inconclusive”.
For `Cc1cccc2cc(CN(Cc3ccc4c(c3)OCO4)Cc3nnnn3C3CCCC3)c(=O)[nH]c12`, the EC50 [7] was > 79.4 µM (not active), the EC50 [8] was > 79.4 µM (not active) and the EC50 [9] was > 79.4 µM (not active).
For `CCCCN(CCCC)CCC(O)c1cc2c(Cl)cc(Cl)cc2c2cc(C(F)(F)F)ccc12` (stereo not given) [HALOFANTRINE HYDROCHLORIDE], the AC50 [10] was 7.27 µM (active), the IC50 [5] was > 20 µM (inactive) and the AC50 [11] was 20 µM (inconclusive). For the same compound, the CC50 [12] was > 40 µM (active) and the AC50 [13] was 6.51 µM (active).
In the case of `CCOC(=O)c1c(-c2ccc(C)cc2)csc1NC(=O)CCN1CCOCC1`, the EC50 [14] is reported as 65.4 µM (active), the EC50 [15] is reported as > 150 µM (not active) and the IC50 [16] is reported as > 50 µM (not active).
With `Cc1ccc(/C=N/Nc2[nH]cnc3ncnc2-3)cc1` the EC50 [17] was > 300 µM (inconclusive) and the EC50 [18] was > 300 µM (not active).
With `COc1cccc(-c2cc(C(=O)N3CCCCCC3)no2)c1` the AC50 [19] was 16.7 µM (active) and the AC50 [20] was 10.3 µM (active).
In the case of `CC(C)SC1=NSC2=NC(=O)/C(=C\c3c[nH]c4ccccc34)C(=N)N21`, the EC50 [17] is reported as > 300 µM (not active) and the EC50 [18] is reported as 18.6 µM (active).
With `O=C(Nc1cnccn1)c1cccc(C(F)(F)F)c1` the EC50 [7] was > 79.4 µM (not active), the EC50 [8] was > 79.4 µM (not active) and the EC50 [9] was > 79.4 µM (not active).
With `CC(C)NC(=O)N1CCC2(CC1)CCN(C(=O)c1cccc(F)c1)CC2` the AC50 [6] was “inconclusive”.
With `CC(NC(=O)c1cc(S(=O)(=O)N(C)C)ccc1N1CCCC1)C1CC2CCC1C2` (stereo not given) the AC50 [1] was 4.03 µM (active), the AC50 [2] was 4.89 µM (active) and the AC50 [3] was 2.74 µM (active). The AC50 [4] was 7.68 µM (active).
With `COC(=O)c1nnc(NC(=O)c2ccc(Br)cc2)[nH]1` the IC50 [16] was 0.0137 µM (active).
For `CCOc1ccc(OCC)c(NC(=O)C2CCCN(S(=O)(=O)c3c[nH]cn3)C2)c1` (stereo not given), the IC50 [16] was > 50 µM (not active).
With `O=C(C1CCCC1)N1CC2(C1)[C@@H](c1ccccc1)[C@H](CO)N2Cc1ccc(Cl)cc1` the AC50 [21] was 1.49 µM (active), the AC50 [22] was 3.13 µM (active) and the AC50 [23] was 1.98 µM (active). For the same compound, the AC50 [24] was 3.62 µM (active).
For `CC(=O)OCC(=O)[C@]12OC(C)(C)O[C@@H]1C[C@H]1[C@H]3CC=C4C[C@@H](O)CC[C@]4(C)[C@H]3CC[C@]12C`, the AC50 [25] was 7.94 µM (inconclusive) and the AC50 [6] was “inconclusive”.
In the case of `COc1ccc(C(=O)Nc2cc(C)c3c(=O)oc4ccccc4c3n2)cc1`, the EC50 [7] is reported as > 79.4 µM (not active), the EC50 [8] is reported as 82.8 µM (not active) and the EC50 [9] is reported as > 79.4 µM (not active).
For `CC1CCCN(c2nc3ccccc3nc2C(C#N)S(=O)(=O)c2cccs2)C1` (stereo not given), the IC50 [26] was > 66 µM (inactive), the EC50 [17] was 11.2 µM (inconclusive) and the IC50 [27] was > 66 µM (inactive). The EC50 [18] was 7.02 µM (inconclusive).
In the case of `CC(C)Cn1cc(C(=O)NCCCN2CCC(C)CC2)c2c3ccccc3n(C)c2c1=O`, the IC50 [5] is reported as > 20 µM (inactive).
With `CN1CC(c2ccccc2)C2(COc3ccccc3C2=O)C12C(=O)Nc1ccccc12` (stereo not given) the AC50 [1] was 3.46 µM (active), the AC50 [2] was 4.14 µM (active) and the AC50 [3] was 2.66 µM (active). The AC50 [28] was 20 µM (inconclusive) and the AC50 [4] was 5.51 µM (active).
In the case of `Cc1ccc(-n2c(C)nc3c(cnn3-c3ccc(F)cc3)c2=O)cc1C`, the AC50 [25] is reported as 15.8 µM (inconclusive), the AC50 [6] is reported as “inconclusive” and the AC50 [28] is reported as 15.8 µM (inconclusive).
For `COc1ccc(OC)c(C2Nc3c(Cl)ccc(C(=O)O)c3C3C=CCC32)c1` (stereo not given), the EC50 [17] was 40.7 µM (active) and the EC50 [18] was > 300 µM (not active).
In the case of `CC(=O)CCc1ccc(OC(=O)c2cccnc2)cc1`, the EC50 [7] is reported as > 79.4 µM (not active), the EC50 [8] is reported as > 79.4 µM (not active) and the EC50 [9] is reported as > 79.4 µM (not active).
With `Cc1ccc(NCC(O)C(O)C(O)CO)c(N=Nc2ccccc2)c1C` (stereo not given) the IC50 [16] was > 50 µM (not active).
With `COc1ccc(NC(=O)Nc2ccc(OCc3ccccc3)cc2)cn1` the IC50 [26] was 20 µM (active), the EC50 [17] was 17.9 µM (active) and the IC50 [27] was > 66 µM (inactive). For the same compound, the EC50 [18] was 29.2 µM (active).
